Results from patent US5643907A, “Pharmaceutical composition containing 5-morpholinomethyl-3-(4-chlorobenzylideneamine)-2-oxazolidinone and its use for the treatment of CNS disorders” (priority 1993, dated 1997).
Counter-ions that a name gives are not always drawn.

Tests used:
uptake of noradrenaline = experiment: Effect on the uptake of noradrenaline in vivo (protection from 6-OHDA); set-up: species or system rat; conditions: for Concentration of noradrenaline in the brain X ± SEM: control 205 ± 10, 5
Method: The point of reference for measuring the inhibiting effect on the uptake of noradrenaline was the protection from the effect of 6-hydroxydopamine (6-OHDA), which was administered intraventricularly. Rats were applied intraventricularly 250 μg of 6-OHDA in the volume of 20 μl of 0,9% solution of […] and 0,1% solution of ascorbic acid. […] The animals were decapitated 7 days after and the level of noradrenaline in the whole brain was measured by the division on the Sephadex G-10 column and fluorimetric assay following oxidation.

rats behaviour = experiment: Influence on the rats behaviour in "despair test" (Porsolt), immobility period; type: in vivo, rat; conditions: for The immobility period, % of control: twice
Method: 1) The influence on the rats behaviour in "despair test".
The rats were placed separately in upright, metallic cylindrical containers, 60 cm high and 18 cm in diameter, containing 15 centimeters of water, at a temperature of 25° C. […] After 24 hours the rats were dived in water again and for 5 minutes the complete immobility period was measured. The examined preparation (containing 5-morpholinomethyl-3-(4-chlorobenzylideneamine)-2-oxazolidinone hydrochloride) or imipramine (IMI) was administered per os twice: at 24 hours and one hour before the beginning of the observation.

beta-adrenergic receptor = experiment: Influence of chronic administration on concentration of beta-adrenergic cerebral receptors in vivo (3H-dihydroalprenolol bonding to cerebral cortex membranes); set-up: species or system rat
Method: Rats were administered the examined preparation in the form of intraperitoneally injection and the dosage of 200 mg/kg twice daily for six weeks. In the same empirical system IMI was examined in the dosage of 10 mg/kg. The animals were killed 24 hours after the last injection and their cerebral cortexes were skeletonized.
The population of the beta-adrenergic receptor was characterised by the examination of the parameters of the ^3 H-dihydroalprenolol (^3 H-DHA) bonding to the membranes (fractiom P2) of the cerebral cortex. The tissue was homogenised in 20 volumes of the 50 mM buffer TRIS-HCl, pH 7,6 in the Polytron disintegrator (position 4,155) and centrifuged at 1000 g for 10 minutes. The supernatant was decanted and again centrifuged at 25000 for 20 minutes. The operations were conducted in the temperature of 0°-4° C. The precipitate, after the second centrifugation, decanting and removing the supernatant, was kept in the temperature of -18° C. until the time of incubation (no longer than 48 hours). The final fraction P2 was obtained by the subsequent process of the sediment homogenisation in such a volume of 50 mM buffer TRIS-HCl, pH 7,6, that the final concentration of protein amounted to 1,5 mg/ml.
The incubation mixture, containing 450 μl of the fraction P2 suspension, 50 μl of the ^3 H-DHA solution (6 different solutions; the final concentrations in the mixture […]) and 50 μl of buffer or propranolol solution (the final concentration in the sample […]) was incubated for 30 minutes in the temperature of 25° C. The incubation was finished by filtrating the suspension through filters made of glass fibres. The filters were twice rinsed with 5 ml of cold (0° C.) buffer TRIS-HCl, pH 7,6, and placed in scintillation minivessels, to which Bray's liquid was added. The radioactivity was measured by the Packard scintillation counter, model B329 with the efficiency of 36-37%.
The specific bonding was defined as the radioactivity difference between the samples incubated in the absence of propranolol (complete bonding) and in the presence of 10 μM of propranolol (blank). The data from the counter […] were recalculated individually into the decay frequence […], calculating it from the individual efficiency of each sample, received from the relation of impulses in the canals A and B. Bmax value and the constant of dissociation KD was calculated from the Scatchard diagrams, which were rectilinear.

[1] = tested on: process of learning and memorising; experiment: Effect on the process of learning and memorising (conditioned jump on a bar); type: in vivo, rat
[2] = tested on: reserpine pretreated mice; experiment: Intensification of L-Dopa effects in reserpine pretreated mice; type: in vivo, mouse
Method: 2) The intensification of L-Dopa effects in reserpine pretreated mice.
The examined preparation was administered to mice p.o. in the dosages of 40 and 200 mg/kg 17 hours after reserpine in the dosage of 2,5 mg/kg had been administered intraperitoneally. After one hour L-dopa was injected in the dosage of 300 mg/kg. The intensification of L-dopa anti-reserpine action was evaluated according to the following parameters of the animals behaviour: mobility, irritability, ptosis and body temperature. According to the same empirical system IMI was examined in the dosages of 8 and 40 mg/kg.

[3] = tested on: mice in the conditions of hypoxia; experiment: Effect on the time of survival in the conditions of hypoxia; type: in vivo, mouse; conditions: for The number of mice surviving in the conditions of hypoxia: surviving/complete number
Method: The examined preparation was applied i.o. in the dosages 5, 10, 50, 75, 100 mg/kg 60 minutes before the beginning of the experiment. The experiment lasted until 0-3 animals survived in the control group. Subsequently oxygen was let in and finally normal air. The number of animals which survived in the control group was compared to the number of animals in the group administered the examined preparation. The number of surviving mice is presented in relation to the complete number of examined mice.

uptake of serotonin [4] = experiment: Effect on the uptake of serotonin in vivo (protection from p-chloramphetamine)
uptake of serotonin [5] = conditions: 200 mg/kg before p-CA; control 353 ± 117, 7
[6] = tested on: mice premedicated with pargyline; experiment: Intensification of L-dopa effects in mice premedicated with pargyline; type: in vivo, mouse; conditions: for Reaction of mice according to score: L-dopa 200 mg/kg i.p. after pargyline, control 1-2
Method: 3) The intensification of L-dopa effects in mice premedicated with pargyline.
Three hours after the oral administration of pargyline in the dosage of 40 mg/kg, there was applied orally either the examined preparation or IMI, followed after one hour by L-dopa administered intraperitoneally in the dosage of 200 mg/kg. The behaviour of the mice was evaluated according to the following 5-level score:
1 - piloerection, Straub's tail, exophtalmos of eyes, minute salivating, irritability.
2 - as above + translocations, single jumps.
3 - as above + bigger incitement of mobility, frequent jumps, climbing, single squeaks.
4 - as above + great incitement of mobility, aggresion, fights.
5 - as above + maximum incitement of mobility and aggresion

[7] = 200 mg/kg daily dosage, chronic
[8] = 100 mg/kg, controls: Examined 9/60 (p <0, 01), Piracetam 7/40 (n.d.), Pyritinol 8/60 (p <0, 01)
[9] = mice premedicated with pargyline
[10] = 10 mg/kg chronic administration, six weeks

`NCCc1cc(O)c(O)cc1O` [6-OHDA, 6-hydroxydopamine, reference compound] was tested, and the “decline of the noradrenalin content in the cerebrum” value (uptake of noradrenaline; 6-OHDA administered intraventricularly) was “over 50%” and the “noradrenaline, % in relation to the group after chemosympathectomy” value (“noradrenaline, % in relation” for short) (uptake of noradrenaline; 6-OHDA alone (reference group), control 216) was 100%.
`O=C1OC(CN2CCOCC2)CN1N=Cc1ccc(Cl)cc1` (centres unmarked) [Examined preparation, 5-morpholinomethyl-3-(4-chlorobenzylideneamine)-2-oxazolidinone hydrochloride] was tested, and the “The immobility period, % of control” value (rats behaviour; 40 mg/kg p.o.) was 89%, the “effect on immobility compared with IMI (20 mg/kg)” value (rats behaviour; 200 mg/kg) was “equals approximately to the effect of IMI (20 mg/kg)” and the “shortened the rats' immobility period in relation to the control group” value (rats behaviour; 200 mg/kg) was 18%. For the same compound, the “The immobility period, % of control” value (rats behaviour; 200 mg/kg p.o.) was 82%, the “Bmax, % of control” value (beta-adrenergic receptor; 40 mg/kg daily dosage, chronic) was 67% and the “KD, % of control” value (beta-adrenergic receptor; 40 mg/kg daily dosage, chronic) was 63%. For the same compound, the “Bmax, % of control” value (beta-adrenergic receptor; [7]) was 72%, the “KD, % of control” value (beta-adrenergic receptor; [7]) was 68% and the “effect on the concentration of receptors, compared with imipramine” value (beta-adrenergic receptor; both dosages, chronic) was “did not differ considerably”. The “constant of dissociation value KD / beta-adrenergic receptor affinity” value (beta-adrenergic receptor; both dosages, chronic, as distinct from imipramine) was “statistically considerable decline of the constant of dissociation value KD and consequently the increase of the beta-adrenergic receptor affinity”, the process of learning ([1]; 5 mg/kg i.p. everyday) was “accelerates the process of learning” and the “effect on learning compared with piracetam and pyritinol” value ([1]; 5 mg/kg i.p. vs piracetam 100 mg/kg, pyritinol 100 mg/kg) was “weaker than the effect of piracetam, but stronger than the effect of pyritinol”. For the same compound, the “irritability and incitement, second phase” value ([2]; 200 mg/kg, after 90 minutes) was “there appeared irritability and big incitement, which lasted over an hour”, the “body posture (righting) reflex” value ([2]; 200 mg/kg, first hour after the application) was “loss of body posture (righting) reflex” and the “effectiveness of smaller versus bigger dosage” value ([2]; 40 vs 200 mg/kg) was “A smaller dosage proved to be more effective than a bigger one”. For the same compound, the “effect on ptosis, hypothermy, mobility and irritability” value ([2]; reserpine pretreated mice + L-dopa) was “reduced ptosis and hypothermy and raised the animals' mobility and irritability”, the “intensification of the behavioural effects of L-dopa” value ([2]; reserpine pretreated mice, compared with IMI) was “intensified the behavioural effects of L-dopa action in reserpine pretreated mice in the same way as IMI” and the “The number of mice surviving in the conditions of hypoxia” value (from here on “The number of mice surviving”) ([3]; 5 mg/kg, control 7/40, p n.d.) was 5/40. For the same compound, the “The number of mice surviving” value ([3]; 10 mg/kg, control 5/40, p n.d.) was 6/40, the “The number of mice surviving” value ([3]; 50 mg/kg, control 9/60, p <0, 01) was 23/60 and the “The number of mice surviving” value ([3]; 75 mg/kg, control 9/60, p <0, 01) was 28/60. The “The number of mice surviving” value [3, 8] was 47/60, the “time of mice survival in the conditions of hypoxia” value ([3]; in comparison to piracetam and pyritinol) was “prolongs the time of mice survival in the conditions of hypoxia” and the “noradrenaline, % in relation” value (uptake of noradrenaline; 40 (mg/kg) before 6-OHDA) was 92%. The “noradrenaline, % in relation” value (uptake of noradrenaline; 200 (mg/kg) before 6-OHDA) was 155%, the “Concentration of noradrenaline in the brain X ± SEM” value (uptake of noradrenaline; 200 (mg/kg) before 6-OHDA) was 148 ± 24, 9 mg/kg tissue and the “inhibiting the uptake of noradrenaline” value (uptake of noradrenaline; high dosages) was “proves effective in inhibiting the uptake of noradrenaline”. For the same compound, the “inhibition of the effect of 6-OHDA compared with IMI” value (uptake of noradrenaline; higher dosage) was “inhibits it almost as effectively as IMI”, the “prevention of the effect of 6-OHDA” value (uptake of noradrenaline; low dosage) was “does not prevent the effect of 6-OHDA completely” and the “serotonin, % in relation to the group after p-chloramphetamine” value (“serotonin, % … after p-chloramphetamine” for short) (uptake of serotonin [4]; 40 mg/kg before p-CA) was 107%. For the same compound, the “serotonin, % … after p-chloramphetamine” value (uptake of serotonin [4]; 200 mg/kg before p-CA) was 172%, the “prevention of the p-chloramphetamine effect” value (uptake of serotonin [4]; high dosage) was “prevented the p-chloramphetamine effect completely” and the “effect on the washing-out action of p-chloramphetamine” value (uptake of serotonin [4]; low dosage) was “did not produce any effects on the washing-out action of p-chloramphetamine”. The “Concentration of serotonin in the brain X ± SEM” value (uptake of serotonin [5]) was 367 ± 30, 1 mg/kg tissue, the “Reaction of mice according to score” value ([6]; 10 mg/kg p.o.) was 5 and the “Reaction of mice according to score” value ([6]; 20 mg/kg p.o.) was 5. The “Reaction of mice according to score” value ([6]; 40 mg/kg p.o.) was 5, the “Reaction of mice according to score” value ([6]; 200 mg/kg p.o.) was 3-4 and the “mobility and emotion incitement” value ([6]; after the dosages of 10, 20 and 40 mg/kg) was “strongest mobility and emotion incitement”. The “effectiveness compared with IMI” value [6, 9] was “stronger effectiveness than IMI” and the “intensification of L-dopa effects” value [6, 9] was “very strong intensification of L-dopa effects”.
`CN(C)CCCN1c2ccccc2CCc2ccccc21` [IMI, imipramine, reference compound] was tested, and the “The immobility period, % of control” value (rats behaviour; 20 mg/kg p.o.) was 88%, the “Bmax, % of control” value (beta-adrenergic receptor; [10]) was 60% and the “KD, % of control” value (beta-adrenergic receptor; [10]) was 129%. For the same compound, the “Temper. 60' (body temperature)” value ([2]; 8 mg/kg + L-Dopa 300 mg/kg after reserpine) was 34,3, the “noradrenaline, % in relation” value (uptake of noradrenaline; 20 mg/kg before 6-OHDA) was 188% and the “Concentration of noradrenaline in the brain X ± SEM” value (uptake of noradrenaline; 20 mg/kg before 6-OHDA) was 179 ± 113, 5 mg/kg tissue. The “Reaction of mice according to score” value ([6]; 4 mg/kg p.o.) was 4 and the “Reaction of mice according to score” value ([6]; 40 mg/kg p.o.) was 3-4.
With `NC(=O)CN1CCCC1=O` [Piracetam, piracetam, reference compound] the “The number of mice surviving” value [3, 8] was 6/40 and the “The number of mice surviving” value ([3]; 300 mg/kg, control 6/60, p <0, 05) was 18/60.
With `Cc1ncc(CSSCc2cnc(C)c(O)c2CO)c(CO)c1O` [Pyritinol, pyritinol, reference compound] the “The number of mice surviving” value [3, 8] was 30/60.
With `CC(N)Cc1ccc(Cl)cc1` (centres unmarked) [p-CA, p-chloramphetamine, reference compound] the “serotonin, % … after p-chloramphetamine” value (uptake of serotonin [4]; p-CA alone (reference group), control 169) was 100% and the “decline of the cerebral serotonine concentration” value (uptake of serotonin [4]; p-chloramphetamine alone) was 40%.
